Results reported in ChEMBL document CHEMBL4390708, “Design, synthesis, in-silico studies and biological screening of quinazolinone analogues as potential antibacterial agents against MRSA” (2019).
Values after ≈ are worked out from the molar mass of the structure shown.

How the values were obtained:
Assay type in all cases: functional
[1] = tested on: Staphylococcus aureus; assay: Antibacterial activity against Staphylococcus aureus assessed as reduction in bacterial cell viability incubated for 20 to 24 hrs by REMA method
[2] = tested on: Escherichia coli; assay: Antibacterial activity against Escherichia coli assessed as reduction in bacterial cell viability incubated for 20 to 24 hrs by REMA method
[3] = tested on: Staphylococcus aureus; assay: Antibacterial activity against methicillin-resistant Staphylococcus aureus assessed as reduction in bacterial cell viability incubated for 20 to 24 hrs by REMA method

With `O=C(Nc1cccc(-n2c(/C=C/c3ccc(F)cc3)nc3ccccc3c2=O)c1)c1cccs1` the MIC [1] was 31.2 µg/mL (≈ 66.8 µM), the MIC [2] was 62.5 µg/mL (≈ 134 µM) and the MIC [3] was 31.2 µg/mL (≈ 66.8 µM).

With `Cc1ccccc1C(=O)Nc1cccc(-n2c(/C=C/c3ccc(C#N)cc3)nc3ccccc3c2=O)c1` the MIC [1] was 62.5 µg/mL (≈ 130 µM), the MIC [2] was 62.5 µg/mL (≈ 130 µM) and the MIC [3] was 62.5 µg/mL (≈ 130 µM).

Molecule `COc1ccc(C(=O)Nc2cccc(-n3c(/C=C/c4ccc(F)cc4)nc4ccccc4c3=O)c2)cc1OC` has an MIC [1] of 62.5 µg/mL (≈ 120 µM), an MIC [2] of 62.5 µg/mL (≈ 120 µM) and an MIC [3] of 62.5 µg/mL (≈ 120 µM).

In the case of `O=C(Nc1cccc(-n2c(/C=C/c3ccc(F)cc3)nc3ccccc3c2=O)c1)c1ccccc1`, the MIC [1] is reported as 125 µg/mL (≈ 271 µM), the MIC [2] is reported as 62.5 µg/mL (≈ 135 µM) and the MIC [3] is reported as 62.5 µg/mL (≈ 135 µM).

With `COc1ccc(CC(=O)Nc2cccc(-n3c(/C=C/c4ccc(Cl)cc4)nc4ccccc4c3=O)c2)cc1` the MIC [1] was 15.6 µg/mL (≈ 29.9 µM), the MIC [2] was 62.5 µg/mL (≈ 120 µM) and the MIC [3] was 31.2 µg/mL (≈ 59.9 µM).

`N#Cc1ccc(/C=C/c2nc3ccccc3c(=O)n2-c2cccc(NC(=O)c3ccccc3)c2)cc1` gave an MIC [1] of 62.5 µg/mL (≈ 133 µM), an MIC [2] of 62.5 µg/mL (≈ 133 µM) and an MIC [3] of 62.5 µg/mL (≈ 133 µM).

Molecule `Cc1ccccc1C(=O)Nc1cccc(-n2c(/C=C/c3ccc(F)cc3)nc3ccccc3c2=O)c1` has an MIC [1] of 125 µg/mL (≈ 263 µM), an MIC [2] of 62.5 µg/mL (≈ 131 µM) and an MIC [3] of 62.5 µg/mL (≈ 131 µM).

`COc1ccc(CC(=O)Nc2cccc(-n3c(/C=C/c4ccc(F)cc4)nc4ccccc4c3=O)c2)cc1` showed an MIC [1] of 62.5 µg/mL (≈ 124 µM), an MIC [2] of 62.5 µg/mL (≈ 124 µM) and an MIC [3] of 62.5 µg/mL (≈ 124 µM).

Molecule `N#Cc1ccc(/C=C/c2nc3ccccc3c(=O)n2-c2cccc(NC(=O)c3cccs3)c2)cc1` has an MIC [1] of 62.5 µg/mL (≈ 132 µM), an MIC [2] of 62.5 µg/mL (≈ 132 µM) and an MIC [3] of 62.5 µg/mL (≈ 132 µM).

Molecule `COc1ccc(C(=O)Nc2cccc(-n3c(/C=C/c4ccc(Cl)cc4)nc4ccccc4c3=O)c2)cc1OC` has an MIC [1] of 62.5 µg/mL (≈ 116 µM), an MIC [2] of 62.5 µg/mL (≈ 116 µM) and an MIC [3] of 62.5 µg/mL (≈ 116 µM).

In the case of `NC[C@H]1O[C@H](O[C@H]2[C@H](O)[C@@H](O[C@H]3O[C@H](CO)[C@@H](O)[C@H](N)[C@H]3O)[C@H](N)C[C@@H]2N)[C@H](O)[C@@H](O)[C@@H]1O` [KANAMYCIN], the MIC [1] is reported as 7.8 µg/mL (≈ 16.1 µM) and the MIC [2] is reported as 7.8 µg/mL (≈ 16.1 µM).

In the case of `CC(=O)NC[C@H]1CN(c2ccc(N3CCOCC3)c(F)c2)C(=O)O1` [LINEZOLID], the MIC [3] is reported as 7.8 µg/mL (≈ 23.1 µM).

Molecule `CN[C@@H]1[C@H](O[C@H]2[C@H](O[C@H]3[C@H](O)[C@@H](O)[C@H](N=C(N)N)[C@@H](O)[C@@H]3N=C(N)N)O[C@@H](C)[C@]2(O)C=O)O[C@@H](CO)[C@H](O)[C@H]1O` [STREPTOMYCIN] has an MIC [1] of 7.8 µg/mL (≈ 13.4 µM) and an MIC [2] of 7.8 µg/mL (≈ 13.4 µM).
